According to publication PMC8242589, “Cardiac Safety of Kinase Inhibitors – Improving Understanding and Prediction of Liabilities in Drug Discovery Using Human Stem Cell-Derived Models” (Frontiers in Cardiovascular Medicine, 2021):
“Also recorded” adds a separate entry of the source.

Experiments:
[1] = system: hSC-CMs (Cor.4U Cardiomyocytes); assay: Apoptosis assay (CellEvent Caspase-3/7 Green, IncuCyte ZOOM kinetics over 24 h); type: cell-based, human; design: key to Caspase / Caspase MEAN: % of time-matched vehicle control (green object area); conditions: normalized to time-matched vehicle control
Protocol: Cor.4U® Cardiomyocytes ([…], Netherlands) were cultured in 96-well plates at density of 25,000 - 30,000 cells per well. Cells were maintained at 5% CO2 and 37 °C for 4 days prior to experiments. […] The plates were incubated 2 h before compound treatment in the IncuCyte ZOOM (ESSEN BioScience, Ann Arbor, Michigan) to set a baseline before the 24 h compound treatment. […] Imaging was done using 10x microscope objective of the IncuCyteZOOM with four images per well-taken every 2 h in both phase-contrast and green fluorescence. The fluorescent nuclear signal of the apoptotic cells was separated from background with the integrated object counting algorithm, adjusted to cardiomyocytes, and the calculated total green object area per well (μm^2/well) plotted against time. Data were normalized to those of the time-matched vehicle control. Data were representative of at least three replicates per concentration.

[2] = system: hSC-CMs (Cor.4U Cardiomyocytes); assay: ATP assay (CellTiter-Glo Luminescent Cell Viability Assay); type: cell-based, human; conditions: normalized to time-matched DMSO control
Protocol: Cor.4U® Cardiomyocytes (Ncardia, Netherlands) were cultured in 96-well plates at density of 25,000 – 30,000 cells per well. Cells were maintained at 5% CO2 and 37 °C for 4 days prior to experiments. The cell culture medium (Cor4U® Complete Culture Medium, cat# Ax-M-HC250E, Axiogenesis AG, Cologne, Germany) was changed every 24 h and was replaced by serum-free BMCC medium (cat# Ax-M-BMCC259, Axiogenesis AG, Cologne, Germany) 12 h prior to drug addition.
The CellTiter-Glo Luminescent Cell Viability Assay (cat# G7572, Promega, USA) was performed for quantification of the cellular ATP concentration according to manufacturer's instructions. Plates were shaken for 2 min in the dark, incubated at ambient temperature for 10 min before measuring luminescence (Integration time 0.1 seconds per well) with Luminescence Counter (Synergy H1, BioTek Instruments, Inc., Winooski, Vermont). The measured ATP concentration values were normalized to the time-matched DMSO controls. Data are representative of at least three replicates per concentration.

ROCK1 = conditions: ref [36] (RKI-1447), [37], [38] (Fasudil), [39]–[43] (Y-27632), [44], [45] (GSK-429286); read-out: Target IC50 ROCK1; cited from earlier work
[3] = system: hSC-CMs (Cor.4U Cardiomyocytes); assay: CardioExcyte 96 impedance and EFP recording (beating rate, base impedance); type: cell-based, human; conditions: for BR / Base Imp: vs baseline before drug (taken as 100%)
Protocol: Cor.4U® Cardiomyocytes (Ncardia, Netherlands) were cultured in 96-well plates at density of 25,000 – 30,000 cells per well. Cells were maintained at 5% CO2 and 37 °C for 4 days prior to experiments.
Functional monitoring of cardiomyocytes was done using CardioExcyte® 96 (Nanion technologies GmbH, Germany). Extracellular field potential (EFP) and impedance signals were recorded from hSC-CMs that formed monolayers in the wells of the NSP-96 plate. Beating Rate (BR, per minute) was calculated as the reciprocal of the inter-spike interval (ISI) in EFP signal. Impedance signals from spontaneously beating hSC-CMs were recorded with a sampling rate of 1 ms (1 kHz), and EFP data were collected at 0.1ms (10 kHz). Data acquisition was controlled by CardioExcyte® 96 Control software as previously described ([22]). The functional parameters recorded in each concentration of test items were compared to the base line values before drug addition (taken as 100%) to define fractional change.

In the case of `O=C(NCc1cccc(O)c1)Nc1nc(-c2ccncc2)cs1` [RKI-1447], the Caspase ([1]; 0.01 µM, 2h) is reported as 116, the Caspase ([1]; 0.01 µM, 24h) is reported as 115 and the Caspase ([1]; 0.1 µM, 2h) is reported as 117. For the same molecule, the Caspase ([1]; 0.1 µM, 24h) was 115, the Caspase ([1]; 1 µM, 2h) was 90 and the Caspase ([1]; 1 µM, 24h) was 110. For the same molecule, the Caspase ([1]; 10 µM, 2h) was 93, the Caspase ([1]; 10 µM, 24h) was 129 and the ATP ([2]; 0.01 µM, 2h) was 98. The ATP ([2]; 0.01 µM, 24h) was 102, the ATP ([2]; 0.1 µM, 2h) was 99 and the ATP ([2]; 0.1 µM, 24h) was 99. For the same molecule, the ATP ([2]; 1 µM, 2h) was 101, the ATP ([2]; 1 µM, 24h) was 98 and the ATP ([2]; 10 µM, 2h) was 104. For the same molecule, the ATP ([2]; 10 µM, 24h) was 102, the IC50 (ROCK1) was 14.5 nM and the BR ([3]; 0.01 µM, 2h) was 107. For the same molecule, the “Base Imp” value ([3]; 0.01 µM, 2h) was 87, the BR ([3]; 0.01 µM, 24h) was 100 and the “Base Imp” value ([3]; 0.01 µM, 24h) was 88. For the same molecule, the BR ([3]; 0.1 µM, 2h) was 106, the “Base Imp” value ([3]; 0.1 µM, 2h) was 86 and the BR ([3]; 0.1 µM, 24h) was 101. The “Base Imp” value ([3]; 0.1 µM, 24h) was 81, the BR ([3]; 1 µM, 2h) was 110 and the “Base Imp” value ([3]; 1 µM, 2h) was 80. For the same molecule, the BR ([3]; 1 µM, 24h) was 107, the “Base Imp” value ([3]; 1 µM, 24h) was 69 and the BR ([3]; 10 µM, 2h) was 112. For the same molecule, the “Base Imp” value ([3]; 10 µM, 2h) was 68, the BR ([3]; 10 µM, 24h) was 115 and the “Base Imp” value ([3]; 10 µM, 24h) was 65. For the same molecule, the “Effect on base impedance, in words” value ([3]; hSC-CMs, 2 and 24 h) was “concentration-and time-dependent decrease in base impedance; also recorded: concentration-dependent effects”.
